Values belong to the compound of their own block, whether it stands above or below them.
Tests used:
[1] = target: T1, HaPhy (Hafnia alvei phytase) (Hafnia alvei, UniProt H9TUK5); test: X-ray crystal structure of the complex, […] Å; type: binding; settings: 0.2 M potassium/sodium tartrate, pH 8.4-9.1 (from crystallisation solution); active site; second tartrate at occupancy 0.25
T1 construct: gene phyA; recombinant mature enzyme, purified, residues 1-416; expression details only in SI; monomer in the asymmetric unit; four disulphides
T1 sequence (H9TUK5 34-446): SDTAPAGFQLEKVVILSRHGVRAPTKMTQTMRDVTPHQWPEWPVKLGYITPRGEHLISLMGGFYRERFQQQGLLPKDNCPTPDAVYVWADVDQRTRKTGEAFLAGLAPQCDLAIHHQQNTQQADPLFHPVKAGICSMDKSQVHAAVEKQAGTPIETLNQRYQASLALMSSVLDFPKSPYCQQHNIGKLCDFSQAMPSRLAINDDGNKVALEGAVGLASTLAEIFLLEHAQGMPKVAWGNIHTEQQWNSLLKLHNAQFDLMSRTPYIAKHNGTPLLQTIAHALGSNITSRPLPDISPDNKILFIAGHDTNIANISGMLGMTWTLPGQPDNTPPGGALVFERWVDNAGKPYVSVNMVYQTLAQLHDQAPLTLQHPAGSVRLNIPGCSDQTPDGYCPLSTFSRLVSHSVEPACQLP

[2] = target: T1, HaPhy (Hafnia alvei phytase); test: isothermal titration calorimetry; type: binding
[3] = target: T2, YkPhy (Yersinia kristensenii phytase) (Yersinia kristensenii, UniProt H9TUK6); settings: SPGS buffer pH 5.0 (phosphate from crystallisation solution); two Pi in the active site
T2 construct: gene phyA
T2 sequence (H9TUK6 entry or part of it): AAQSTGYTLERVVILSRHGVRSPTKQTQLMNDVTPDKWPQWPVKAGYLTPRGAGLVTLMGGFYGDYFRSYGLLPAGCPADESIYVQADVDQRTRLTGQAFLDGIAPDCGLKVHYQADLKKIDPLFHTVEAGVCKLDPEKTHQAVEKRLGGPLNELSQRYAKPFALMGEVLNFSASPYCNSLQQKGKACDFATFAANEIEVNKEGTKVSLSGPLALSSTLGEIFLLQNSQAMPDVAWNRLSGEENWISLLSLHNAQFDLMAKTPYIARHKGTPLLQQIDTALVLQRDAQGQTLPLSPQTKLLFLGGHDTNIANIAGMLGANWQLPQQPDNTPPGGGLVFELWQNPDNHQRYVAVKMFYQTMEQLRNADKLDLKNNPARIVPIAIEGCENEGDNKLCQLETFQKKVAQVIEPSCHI

Structure (SMILES): O=C(O)C(O)C(O)C(=O)O (stereo not drawn) [L(+)-tartrate]
X-ray crystal structure of the complex, 1.60 Å [1]: The active site contained a tartrate molecule, a component of the crystallisation buffer

Kd [2]: ~160 nM
Structure (SMILES): O=S(=O)(O)O[C@H]1[C@H](OS(=O)(=O)O)[C@@H](OS(=O)(=O)O)[C@H](OS(=O)(=O)O)[C@@H](OS(=O)(=O)O)[C@H]1OS(=O)(=O)O [MIHS, myo-inositol hexakissulphate]

Structure (SMILES): O=P(O)(O)O [Pi, phosphate]
X-ray crystal structure of the complex, 1.67 Å [3]: Each monomer contains two Pi molecules in its active site
